Laboratory results as given in US9718812B2, “Substituted thiazole or oxazole P2X7 receptor antagonists” (Axxam S.P.A., priority 2014, dated 2017).

Key:
P2X7 receptor = P2X7 receptor (Homo sapiens (Human), UniProt Q99572); assay: YO-PRO-1 Uptake Assay (large pore form, Bz-ATP stimulated); format: cell-based; details: HEK-293 cells stably transfected with P2X7 receptor; Bz-ATP EC80 (30 μM); 5 μM YO-PRO-1
Source text: YO-PRO®-1 is a fluorescent DNA-binding dye with a MW of 374 Da (Molecular Probes®, cat. Y3603). This method is based upon the presumed ability of YO-PRO®-1 to enter through the dilated or “large pore form” of P2X7 receptor and to bind to intracellular DNA whereupon it increases many fold its fluorescence intensity. The dye has an absorption spectrum compatible with excitation at 488 nm by argon laser sources and its emission wavelength is in the range of 515-575 nm. The aim of this assay was to validate the interaction of antagonists with P2X7 receptor using an alternative readout to Ca^2+-sensitive fluorescent dyes.
HEK-293 cells stably transfected with P2X7 receptor were seeded overnight in growth medium at 20,000 cells/well in 384-well plate. 24 hours later, the medium was removed, the cells were washed with Low Divalent Cation Assay Buffer (0.3 mM Ca2+ and 0 mM Mg2+) and then pre-loaded with 20 μL/w of 5 μM YO-PRO®-1 dye. […] fluorescence measurement immediately started. Then, 10 μL/w of test compounds and reference antagonist A438079 at 3×-concentration were injected with the […] and the kinetic response over a period of five minutes was monitored. A second injection of 10 μL/w of 3× Bz-ATP EC80 (30 μM) was performed with the […] and the signal of the emitted fluorescence was recorded for additional 60 minutes. All the experiment was carried out with a Low Divalent Cation Assay Buffer (0.3 mM Ca^2+ and 0 mM Mg^2+).
The effect of the test compounds was measured as percent inhibition vs the reference antagonist and IC50 values were calculated accordingly.

P2X7 receptor (hP2X7) = P2X7 receptor (hP2X7) (Homo sapiens (Human), UniProt Q99572); assay: Screen Quest Fluo-8 No Wash Calcium Assay (Bz-ATP-induced Ca2+ influx, FLIPR TETRA); format: cell-based; details: HEK-293 cells stably transfected with P2X7 receptor, Fluo-8 calcium, Low Divalent Cation Assay Buffer
Chain of P2X7 receptor (hP2X7) (Q99572 whole entry): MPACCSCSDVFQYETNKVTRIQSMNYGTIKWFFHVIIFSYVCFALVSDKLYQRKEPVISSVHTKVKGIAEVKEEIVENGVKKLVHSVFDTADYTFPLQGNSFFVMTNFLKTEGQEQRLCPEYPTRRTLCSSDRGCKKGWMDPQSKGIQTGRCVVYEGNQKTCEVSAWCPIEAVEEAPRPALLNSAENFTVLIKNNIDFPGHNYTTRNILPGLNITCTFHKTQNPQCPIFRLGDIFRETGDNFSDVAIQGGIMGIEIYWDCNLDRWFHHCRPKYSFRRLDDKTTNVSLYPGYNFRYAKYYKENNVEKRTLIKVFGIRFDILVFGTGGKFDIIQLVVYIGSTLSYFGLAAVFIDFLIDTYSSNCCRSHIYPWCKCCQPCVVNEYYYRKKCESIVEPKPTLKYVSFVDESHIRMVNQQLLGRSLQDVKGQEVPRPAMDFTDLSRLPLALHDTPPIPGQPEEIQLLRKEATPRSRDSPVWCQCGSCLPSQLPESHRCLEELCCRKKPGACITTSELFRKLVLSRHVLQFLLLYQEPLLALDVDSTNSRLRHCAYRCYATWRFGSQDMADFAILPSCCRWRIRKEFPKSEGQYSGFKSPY
Protocol: Extracellular binding of Bz-ATP to P2X7 receptor opens the channel and allows Ca2+ influx into the cells. This Ca2+ entry was measured in HEK-293 cells stably transfected with P2X7 receptor using Screen Quest™ Fluo-8 No Wash Calcium Assay Kit (AAt Bioquest®, cat. 36316). Once inside the cell, the lipophilic blocking groups of Fluo-8 are cleaved by non-specific cell esterases, resulting in a negatively-charged fluorescent dye that stays inside cells. Its fluorescence increases upon binding to calcium. When HEK-293/P2X7 cells are stimulated with Bz-ATP, Ca2+ enters the cells and the fluorescence of Fluo-8 NW increases. The dye has an absorption spectrum compatible with excitation at 488 nm by argon laser sources and its emission wavelength is in the range of 515-575 nm.
HEK-293 cells stably transfected with P2X7 receptor were seeded overnight in growth medium at 10,000 to 20,000 cells/well in 384-well plate. 24 hours later, the medium was removed and the cells were pre-loaded at RT for 1 hour with 20 μL/w of Fluo-8 NW. Then 10 μL/w of test compounds and reference antagonist A438079 at 3×-concentration were injected with the […] and the kinetic response over a period of five minutes was monitored.

Chain of P2X7 receptor (Q99572 whole entry): as above

| Compound | IC50 (P2X7 receptor) [nM] | IC50 (P2X7 receptor (hP2X7)) [nM] |
| --- | --- | --- |
| O=C(NCC(c1nccs1)N1CCc2ccccc2C1)c1c(F)cccc1Cl (stereo not shown) [Compound 1, 2-chloro-N-[2-(3,4-dihydro-1H-isoquinolin-2-yl)-2-(1,3-thiazol-2-yl)-ethyl]-6-fluoro-benzamide] | 1360 | 1020 |
| O=C(NCC(c1nccs1)N1CCC(F)(F)CC1)c1c(F)cccc1Cl (stereo not shown) [Compound 2, 2-chloro-N-[2-(4,4-difluoro-piperidin-1-yl)-2-(1,3-thiazol-2-yl)-ethyl]-6-fluoro-benzamide] | 1300 | 306 |
| O=C(NCC(c1cscn1)N1CCC(F)(F)CC1)c1c(F)cccc1Cl (stereo not shown) [Compound 4, 2-chloro-N-[2-(4,4-difluoropiperidin-1-yl)-2-(1,3-thiazol-4-yl)ethyl]-6-fluorobenzamide] | 3300 | 845 |
| O=C(NCC(c1cscn1)N1CCc2ccccc2C1)c1c(F)cccc1Cl (stereo not shown) [Compound 6, 2-chloro-N-[2-(3,4-dihydro-1H-isoquinolin-2-yl)-2-(1,3-thiazol-4-yl)-ethyl]-6-fluoro-benzamide] | 1260 | 800 |
| O=C(NCC(c1cscn1)N1CCCOCC1)c1c(F)cccc1Cl (stereo not shown) [Compound 7] | 1690 | 840 |
| O=C(NCC(c1cncs1)N1CCC(F)(F)CC1)c1c(F)cccc1Cl (stereo not shown) [Compound 8, 2-chloro-N-[2-(4,4-difluoro-piperidin-1-yl)-2-(1,3-thiazol-5-yl)ethyl]-6-fluoro-benzamide] | 389 | 28 |
| O=C(NCC(c1cncs1)N1CCc2ccccc2C1)c1c(F)cccc1Cl (stereo not shown) [Compound 9, 2-chloro-N-[2-(3,4-dihydro-1H-isoquinolin-2-yl)-2-(1,3-thiazol-5-yl)-ethyl]-6-fluoro-benzamide] | 464 | 100 |
| Cc1cccc(C)c1C(=O)NCC(c1cncs1)N1CCOCC1 (stereo not shown) [Compound 11, 2,6-dimethyl-N-[2-(morpholin-4-yl)-2-(1,3-thiazol-5-yl)ethyl]benzamide] | 220 | 81 |
| Nc1ccc(Cl)c(C(=O)NCC(c2cncs2)N2CCOCC2)c1 (stereo not shown) [Compound 12, 5-amino-2-chloro-N-[2-(morpholin-4-yl)-2-(1,3-thiazol-5-yl)ethyl]benzamide-] | 846 | 143 |
| Cc1cccc(Cl)c1C(=O)NCC(c1cncs1)N1CCOCC1 (stereo not shown) [Compound 13, 2-chloro-6-methyl-N-[2-(morpholin-4-yl)-2-(1,3-thiazol-5-yl)ethyl]benzamide] | 271 | 64 |
| Nc1ccc(Cl)c(C(=O)NCC(c2cncs2)N2CCc3ccccc3C2)c1 (stereo not shown) [Compound 17, 5-amino-2-chloro-N-[2-(1,2,3,4-tetrahydroisoquinolin-2-yl)-2-(1,3-thiazol-5-yl)ethyl]benzamide] | 690 | 136 |
| Cc1cccc(Cl)c1C(=O)NCC(c1cncs1)N1CCc2ccccc2C1 (stereo not shown) [Compound 19, 2-chloro-6-methyl-N-[2-(1,2,3,4-tetrahydroisoquinolin-2-yl)-2-(1,3-thiazol-5-yl)ethyl]benzamide] | 197 | 104 |
| Cc1ncsc1C(CNC(=O)c1c(F)cccc1Cl)N1CCC(F)(F)CC1 (stereo not shown) [Compound 31, 2-chloro-N-[2-(4,4-difluoropiperidin-1-yl)-2-(4-methyl-1,3-thiazol-5-yl)ethyl]-6-fluorobenzamide] | 229 | 31 |
| O=C(NCC(c1cnco1)N1CCC(F)(F)CC1)c1c(F)cccc1Cl (stereo not shown) [Compound 45, 2-chloro-N-[2-(4,4-difluoropiperidin-1-yl)-2-(1,3-oxazol-5-yl)ethyl]-6-fluorobenzamide] | 225 |  |
| Cc1ncoc1C(CNC(=O)c1c(F)cccc1Cl)N1CCC(F)(F)CC1 (stereo not shown) [Compound 52, 2-chloro-N-[2-(4,4-difluoropiperidin-1-yl)-2-(4-methyl-1,3-oxazol-5-yl)ethyl]-6-fluorobenzamide] | 2070 |  |
| COc1cccc(C(=O)NCC(c2ocnc2C)N2CCOCC2)c1OC (stereo not shown) [Compound 53, 2,3-dimethoxy-N-[2-(4-methyl-1,3-oxazol-5-yl)-2-(morpholin-4-yl)ethyl]benzamide] | 4900 |  |
| O=C(NCC(c1cnc(C2CCC(F)(F)CC2)s1)N1CCOCC1)c1cc(-c2ncc(F)cn2)ccc1Cl (stereo not shown) [Compound 125, 2-chloro-N-{2-[2-(4,4-difluorocyclohexyl)-1,3-thiazol-5-yl]-2-(morpholin-4-yl)ethyl}-5-(5-fluoropyrimidin-2-yl)benzamide] |  | 336 |
| O=C(NCC(c1cnc(C2CCC(F)(F)CC2)s1)N1CCC(F)(F)CC1)c1cc(-c2ncc(F)cn2)ccc1Cl (stereo not shown) [Compound 126] |  | 1430 |

Other lines, results leading:

| IC50 (P2X7 receptor) [nM] | IC50 (P2X7 receptor (hP2X7)) [nM] | Compound |
| --- | --- | --- |
| 24 | 141 | Cc1ncc(C(CNC(=O)c2cc(-c3ncc(F)cn3)ccc2Cl)N2CCC(F)(F)CC2)s1 (single isomer, unassigned; (-)) [Compound 128, (−)-2-chloro-N-[2-(4,4-difluoro-piperidin-1-yl)-2-(2-methylthiazol-5-yl)ethyl]-5-(5-fluoropyrimidin-2-yl)benzamide] |
| 57 | 57 | O=C(NCC(c1cncs1)N1CCOCC1)c1c(F)cccc1Cl (stereo not shown) [Compound 10, 2-chloro-6-fluoro-N(2-(morpholin-4-yl)-2-(thiazol-5-yl)-ethyl)benzamide] |
| 38 | 8 | Cc1cccc(Cl)c1C(=O)NCC(c1cncs1)N1CCC(F)(F)CC1 (stereo not shown) [Compound 15, 2-chloro-N-[2-(4,4-difluoropiperidin-1-yl)-2-(1,3-thiazol-5-yl)ethyl]-6-methylbenzamide] |
| 98 | 32 | Nc1ccc(Cl)c(C(=O)NCC(c2cncs2)N2CCC(F)(F)CC2)c1 (stereo not shown) [Compound 16, 5-amino-2-chloro-N-[2-(4,4-difluoropiperidin-1-yl)-2-(1,3-thiazol-5-yl)ethyl]benzamide] |
| 190 | 90 | Cc1cccc(C)c1C(=O)NCC(c1cncs1)N1CCc2ccccc2C1 (stereo not shown) [Compound 18, 2,6-dimethyl-N-[2-(1,2,3,4-tetrahydroisoquinolin-2-yl)-2-(1,3-thiazol-5-yl)ethyl]benzamide] |
| 30 | 34 | O=C(NCC(c1cncs1)N1CCC(F)(F)CC1)c1cc(-c2ncc(F)cn2)ccc1Cl (stereo not shown) [Compound 20, 2-chloro-N-[2-(4,4-difluoropiperidin-1-yl)-2-(1,3-thiazol-5-yl)ethyl]-5-(5-fluoropyrimidin-2-yl)-benzamide] |
| 129 | 31 | COc1cccc(C(=O)NCC(c2cncs2)N2CCC(F)(F)CC2)c1OC (stereo not shown) [Compound 21, N-[2-(4,4-difluoropiperidin-1-yl)-2-(1,3-thiazol-5-yl)ethyl]-2,3-dimethoxybenzamide] |
| 40 | 118 | Cc1cccc(C)c1C(=O)NCC(c1cncs1)N1CCC(OCc2ccccc2)CC1 (stereo not shown) [Compound 23, N-{2-[4-(benzyloxy)piperidin-1-yl]-2-(1,3-thiazol-5-yl)ethyl}-2,6-dimethylbenzamide] |
| 44 | 111 | Cc1cccc(Cl)c1C(=O)NCC(c1cncs1)N1CCC(OCc2ccccc2)CC1 (stereo not shown) [Compound 24, N-{2-[4-(benzyloxy)piperidin-1-yl]-2-(1,3-thiazol-5-yl)ethyl}-2-chloro-6-methylbenzamide] |
| 44 | 119 | Cc1cccc(C)c1C(=O)NCC(c1cncs1)N1CCC(Oc2ccccc2)CC1 (stereo not shown) [Compound 26, 2,6-dimethyl-N-[2-(4-phenoxypiperidin-1-yl)-2-(1,3-thiazol-5-yl)ethyl]benzamide] |
| 52 | 63 | O=C(NCC(c1cncs1)N1CCC(Oc2ccccc2)CC1)c1c(F)cccc1Cl (stereo not shown) [Compound 27, 2-chloro-6-fluoro-N-[2-(4-phenoxypiperidin-1-yl)-2-(1,3-thiazol-5-yl)ethyl]benzamide] |
| 37 | 46 | Cc1cccc(C)c1C(=O)NCC(c1scnc1C)N1CCc2ccccc2C1 (stereo not shown) [Compound 30, 2,6-dimethyl-N-[2-(4-methyl-1,3-thiazol-5-yl)-2-(1,2,3,4-tetrahydroisoquinolin-2-yl)ethyl]benzamide] |
